Reference: PubChem BioAssay AID2060487 (Molecular Pharmacology Branch, DTP, NCI, 2025)

Test system: 997537-175-T-J1-PDC complex spheroid viability
Experiment: Anticancer human tumor 997537-175-T-J1-PDC patient-derived colon adenocarcinoma cell line growth inhibition [GQUAD]
Conditions: for IC50: curve of first compound; for viability, T/C: stronger effect = lower value
Summary of the method: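 Tumor cells were grown as complex spheroids with HUVEC endothelial cells and mesenchymal stem cells as stroma. G-quadruplex stabilizers were combined with targeted agents over half-log dilutions from near the clinical Cmax, or from 10 microM.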

[1] = second compound 0.0316 µM, first compound 0.0316 µM
[2] = second compound 0.0316 µM, first compound 0.316 µM
[3] = second compound 0.1 µM, first compound 0.0316 µM
[4] = second compound 0.1 µM, first compound 0.316 µM
[5] = second compound 0.316 µM, first compound 0.0316 µM
[6] = second compound 0.316 µM, first compound 0.316 µM
[7] = second compound 1 µM, first compound 0.0316 µM
[8] = second compound 1 µM, first compound 0.316 µM
[9] = second compound 3.16 µM, first compound 0.0316 µM
[10] = second compound 3.16 µM, first compound 0.316 µM
[11] = second compound 10 µM, first compound 0.0316 µM
[12] = second compound 10 µM, first compound 0.316 µM
[13] = second compound 0.0316 µM, first compound 0.1 µM
[14] = second compound 0.0316 µM, first compound 1 µM
[15] = second compound 0.0316 µM, first compound 3.16 µM
[16] = second compound 0.0316 µM, first compound 10 µM
[17] = second compound 0.1 µM, first compound 0.1 µM
[18] = second compound 0.1 µM, first compound 1 µM
[19] = second compound 0.1 µM, first compound 3.16 µM
[20] = second compound 0.1 µM, first compound 10 µM
[21] = second compound 0.316 µM, first compound 0.1 µM
[22] = second compound 0.316 µM, first compound 1 µM
[23] = second compound 0.316 µM, first compound 3.16 µM
[24] = second compound 0.316 µM, first compound 10 µM
[25] = second compound 1 µM, first compound 0.1 µM
[26] = second compound 1 µM, first compound 1 µM
[27] = second compound 1 µM, first compound 3.16 µM
[28] = second compound 1 µM, first compound 10 µM
[29] = second compound 3.16 µM, first compound 0.1 µM
[30] = second compound 3.16 µM, first compound 1 µM
[31] = second compound 3.16 µM, first compound 3.16 µM
[32] = second compound 3.16 µM, first compound 10 µM
[33] = second compound 10 µM, first compound 0.1 µM
[34] = second compound 10 µM, first compound 1 µM
[35] = second compound 10 µM, first compound 3.16 µM
[36] = second compound 10 µM, first compound 10 µM
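Also: spheroids exposed to the agents for 7 days.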
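For viability, T/C in this document: 100% = DMSO vehicle control viability.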

Cc1[nH]c2ccccc2c1CCNCc1ccc(/C=C/C(=O)NO)cc1 + Cc1cnc(CNC(=O)c2c(=O)c3ccc(N4CCCN(C)CC4)nc3n3c2sc2ccccc23)cn1 was tested, and the IC50 (second compound 0.0316 µM) was > 0.316 µM, the IC50 (second compound 0.1 µM) was > 0.316 µM and the IC50 (second compound 0.316 µM) was 0.232 µM. The IC50 (second compound 1 µM) was > 0.316 µM, the IC50 (second compound 3.16 µM) was 0.226 µM and the IC50 (second compound 10 µM) was 0.281 µM. For the same molecule, the viability, T/C (second compound 0.0316 µM, first compound 0.000999 µM) was 87.7%, the viability, T/C (second compound 0.0316 µM, first compound 0.00316 µM) was 99% and the viability, T/C (second compound 0.0316 µM, first compound 0.00999 µM) was 98%. The viability, T/C [1] was 80.6%, the viability, T/C (second compound 0.0316 µM, first compound 0.0999 µM) was 82.2% and the viability, T/C [2] was 52.7%. The viability, T/C (second compound 0.1 µM, first compound 0.000999 µM) was 98.3%, the viability, T/C (second compound 0.1 µM, first compound 0.00316 µM) was 94.9% and the viability, T/C (second compound 0.1 µM, first compound 0.00999 µM) was 88.9%. For the same molecule, the viability, T/C [3] was 90.5%, the viability, T/C (second compound 0.1 µM, first compound 0.0999 µM) was 80.2% and the viability, T/C [4] was 59.5%. It also gave a viability, T/C (second compound 0.316 µM, first compound 0.000999 µM) of 105%, a viability, T/C (second compound 0.316 µM, first compound 0.00316 µM) of 90.7% and a viability, T/C (second compound 0.316 µM, first compound 0.00999 µM) of 88.6%. It also gave a viability, T/C [5] of 84.1%, a viability, T/C (second compound 0.316 µM, first compound 0.0999 µM) of 99.9% and a viability, T/C [6] of 33.9%. For the same molecule, the viability, T/C (second compound 1 µM, first compound 0.000999 µM) was 76.1%, the viability, T/C (second compound 1 µM, first compound 0.00316 µM) was 87.6% and the viability, T/C (second compound 1 µM, first compound 0.00999 µM) was 101%. The viability, T/C [7] was 102%, the viability, T/C (second compound 1 µM, first compound 0.0999 µM) was 81.8% and the viability, T/C [8] was 53.1%. It also gave a viability, T/C (second compound 3.16 µM, first compound 0.000999 µM) of 96%, a viability, T/C (second compound 3.16 µM, first compound 0.00316 µM) of 100% and a viability, T/C (second compound 3.16 µM, first compound 0.00999 µM) of 103%. The viability, T/C [9] was 81.4%, the viability, T/C (second compound 3.16 µM, first compound 0.0999 µM) was 110% and the viability, T/C [10] was 30.2%. The viability, T/C (second compound 10 µM, first compound 0.000999 µM) was 99.2%, the viability, T/C (second compound 10 µM, first compound 0.00316 µM) was 108% and the viability, T/C (second compound 10 µM, first compound 0.00999 µM) was 92.8%. For the same molecule, the viability, T/C [11] was 94.4%, the viability, T/C (second compound 10 µM, first compound 0.0999 µM) was 108% and the viability, T/C [12] was 44.3%.

For C=CC(=O)N1CCN(c2nc(=O)n(-c3c(C)ccnc3C(C)C)c3nc(-c4c(O)cccc4F)c(F)cc23)C(C)C1 (stereo unspecified) + Cc1cnc(CNC(=O)c2c(=O)c3ccc(N4CCCN(C)CC4)nc3n3c2sc2ccccc23)cn1, the IC50 (second compound 0.0316 µM) was > 10 µM, the IC50 (second compound 0.1 µM) was > 10 µM and the IC50 (second compound 0.316 µM) was > 10 µM. For the same molecule, the IC50 (second compound 1 µM) was > 10 µM, the IC50 (second compound 3.16 µM) was > 10 µM and the IC50 (second compound 10 µM) was > 10 µM. It also gave a viability, T/C [1] of 102%, a viability, T/C [13] of 90.1% and a viability, T/C [2] of 93.8%. The viability, T/C [14] was 71.5%, the viability, T/C [15] was 77% and the viability, T/C [16] was 87.7%. The viability, T/C [3] was 98.8%, the viability, T/C [17] was 77.7% and the viability, T/C [4] was 87.5%. It also gave a viability, T/C [18] of 64.5%, a viability, T/C [19] of 102% and a viability, T/C [20] of 91.4%. It also gave a viability, T/C [5] of 84.7%, a viability, T/C [21] of 85% and a viability, T/C [6] of 85.4%. It also gave a viability, T/C [22] of 94.9%, a viability, T/C [23] of 89.4% and a viability, T/C [24] of 90.4%. The viability, T/C [7] was 93.7%, the viability, T/C [25] was 100% and the viability, T/C [8] was 99%. The viability, T/C [26] was 95%, the viability, T/C [27] was 102% and the viability, T/C [28] was 99.2%. The viability, T/C [9] was 68.9%, the viability, T/C [29] was 115% and the viability, T/C [10] was 96.5%. For the same molecule, the viability, T/C [30] was 102%, the viability, T/C [31] was 103% and the viability, T/C [32] was 94.4%. It also gave a viability, T/C [11] of 84.1%, a viability, T/C [33] of 83.5% and a viability, T/C [12] of 114%. It also gave a viability, T/C [34] of 87.7%, a viability, T/C [35] of 95.3% and a viability, T/C [36] of 118%.

For Cc1cccc(N(C)C(=O)C2C(O)CCN2c2nc(C)cc(C(F)(F)F)c2C#N)c1 (stereo unspecified) + Cc1[nH]c2ccc(F)cc2c1-c1nc2c3cccnc3c3ncccc3c2[nH]1, the IC50 (second compound 0.0316 µM) was > 10 µM, the IC50 (second compound 0.1 µM) was > 10 µM and the IC50 (second compound 0.316 µM) was > 10 µM. The IC50 (second compound 1 µM) was > 10 µM, the IC50 (second compound 3.16 µM) was > 10 µM and the IC50 (second compound 10 µM) was > 10 µM. It also gave a viability, T/C [1] of 104%, a viability, T/C [13] of 82.7% and a viability, T/C [2] of 107%. It also gave a viability, T/C [14] of 75.4%, a viability, T/C [15] of 85.6% and a viability, T/C [16] of 96%. The viability, T/C [3] was 101%, the viability, T/C [17] was 97.8% and the viability, T/C [4] was 96%. It also gave a viability, T/C [18] of 80.1%, a viability, T/C [19] of 99% and a viability, T/C [20] of 90.6%. It also gave a viability, T/C [5] of 101%, a viability, T/C [21] of 74% and a viability, T/C [6] of 92.8%. For the same molecule, the viability, T/C [22] was 95%, the viability, T/C [23] was 100% and the viability, T/C [24] was 106%. The viability, T/C [7] was 79.4%, the viability, T/C [25] was 95.3% and the viability, T/C [8] was 108%. For the same molecule, the viability, T/C [26] was 85.4%, the viability, T/C [27] was 104% and the viability, T/C [28] was 92.7%. The viability, T/C [9] was 57.9%, the viability, T/C [29] was 89.9% and the viability, T/C [10] was 76.9%. The viability, T/C [30] was 79.2%, the viability, T/C [31] was 69% and the viability, T/C [32] was 85.6%. The viability, T/C [11] was 80.5%, the viability, T/C [33] was 93.8% and the viability, T/C [12] was 80.6%. The viability, T/C [34] was 76.8%, the viability, T/C [35] was 105% and the viability, T/C [36] was 95.6%.
